Experimental data taken from article PMC10382584, “Macrocyclization of linear molecules by deep learning to facilitate macrocyclic drug candidates discovery” (Nature Communications, 2023).
Several values for one entry are separate records, joined by “and”; a condition that tells them apart may be missing. Equal entries are not always repeated. Where two headings read alike, the source gives them in different places.

Columns and labels:
SET-2 cells = assay: Cell proliferation assay (CCK-8), SET-2 cells; assay type: cell-based, human; conditions: for Inhibition (%): single wells, replicates 1 and 2
Method: (§1) The human erythroid leukemia (HEL 92.1.7) cells were purchased from the American Type Culture Collection (ATCC, TIB-180), and the human megakaryoblastic (SET2) cells were obtained from German Collection of Microorganisms and Cell Cultures (DSMZ, ACC 608). The anti-proliferative activities of compounds were evaluated using WST-8 cell counting kit-8 (Elabscience). HEL and SET-2 cells were seeded at 5000 cells/well in 70 μL RPMI-1640 medium (Hyclon) with 10% FBS (Gibco) to the 96-well plate and incubated overnight at 37 °C with 5% CO2. The compounds were serially diluted in RPMI-1640 medium, and cells were treated separately with 30 μL various concentrations of compounds for 72 h. The final DMSO concentration in the culture wells was 0.1%, which had no effect on the cell viability. Finally, 10 μL of CCK-8 solution was added into the wells. 4 h later, the absorbance values at 450 nm were recorded. IC50 values were determined using GraphPad Prism v8.3.0, and three parallel experiments were performed.

HEL cells = assay: Cell proliferation assay (CCK-8), HEL cells; assay type: cell-based, human; conditions: for Inhibition (%): single wells, replicates 1 and 2
Method: as §1

In vivo PK study in mice = conditions: mice
Method: The mice were separately administered to a group of three mice per time point for intravenous (5 mg/kg) or oral administration (5 mg/kg). […] Then the samples were separated by centrifugation and analyzed by LC-MS/MS (XEVO TQ-S) to determine the plasma drug concentrations. The PK parameters were calculated using the noncompartment model with Phoenix WinNonLin v8.0. The animal experimental procedures were approved by the Medicine Research Ethics Committee of Hangzhou Leading Pharmatech Co., Ltd.
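Wherever AUCinf is given: mice dosed intravenously or orally, three animals per time point, plasma drug levels quantified by LC-MS/MS, PK parameters derived by noncompartmental analysis in Phoenix WinNonLin.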
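Wherever Cmax is given: mice dosed intravenously or orally, three animals per time point, plasma drug levels quantified by LC-MS/MS, PK parameters derived by noncompartmental analysis in Phoenix WinNonLin.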
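Wherever T1/2 is given: mice dosed intravenously or orally, three animals per time point, plasma drug levels quantified by LC-MS/MS, PK parameters derived by noncompartmental analysis in Phoenix WinNonLin.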
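Wherever Tmax is given: mice dosed intravenously or orally, three animals per time point, plasma drug levels quantified by LC-MS/MS, PK parameters derived by noncompartmental analysis in Phoenix WinNonLin.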

In the case of `Cc1cnc2nc1Nc1cccc(c1)COCc1cc(ccc1OCCN1CCCC1)N2` [Compound 1], the “Inhibition (%)” value (SET-2 cells; SET-2 cell lines, 0.0977 μM) is reported as 5.3742% and 3.7022% and -1.2341% and 4.261% and 8.580% and 6.307%, the “Inhibition (%)” value (SET-2 cells; SET-2 cell lines, 0.1953 μM) is reported as 7.5239% and 7.2850% and 0.8360% and 9.148% and 16.307% and 12.784% and the “Inhibition (%)” value (SET-2 cells; SET-2 cell lines, 0.3906 μM) is reported as 10.3105% and 11.0271% and 3.0653% and 12.898% and 19.375% and 18.352%. For the same compound, the “Inhibition (%)” value (SET-2 cells; SET-2 cell lines, 0.7813 μM) was 17.3965% and 16.7596% and 8.4793% and 17.557% and 26.420% and 24.261%, the “Inhibition (%)” value (SET-2 cells; SET-2 cell lines, 1.5625 μM) was 26.9506% and 28.1449% and 22.3328% and 35.966% and 41.989% and 43.580% and the “Inhibition (%)” value (SET-2 cells; SET-2 cell lines, 3.1250 μM, 3.125 µM) was 60.6290% and 56.0111% and 56.4092% and 69.034% and 74.716% and 74.943%. The “Inhibition (%)” value (SET-2 cells; SET-2 cell lines, 6.2500 μM, 6.25 µM) was 97.5717% and 97.1736% and 97.3328% and 98.920% and 99.830% and 100.398%, the “Inhibition (%)” value (SET-2 cells; SET-2 cell lines, 12.5000 μM, 12.5 µM) was 96.8551% and 96.6959% and 97.3328% and 99.716% and 100.170% and 100.398% and the IC50 (SET-2 cells; SET-2 cell lines, mean of 2 replicates, read-out: IC50/μM mean, cellular antiproliferative activity) was 1.64 µM. The IC50 (SET-2 cells; SET-2 cell lines, mean ± sd of 2 replicates, read-out: IC50/μM mean ± sd, cellular antiproliferative activity) was 1.64 ± 0.03 µM, the IC50 (SET-2 cells; SET-2 cell lines, single-replicate fits, read-out: IC50/μM (individual replicates), cellular antiproliferative activity) was 1.62 µM and 1.66 µM and the IC50 (SET-2 cells; SET-2 cells, 72 h, mean ± SD, read-out: Cellular Antiproliferative Activity (IC50) SET-2) was 1.64 ± 0.03 µM. The “Inhibition (%)” value (HEL cells; HEL cell lines, 0.0977 μM) was 2.2777% and 0.5143% and -1.6899% and 3.096% and 4.826% and 5.277%, the “Inhibition (%)” value (HEL cells; HEL cell lines, 0.1953 μM) was 5.8046% and 4.8494% and 8.1558% and 6.255% and 8.812% and 5.578% and the “Inhibition (%)” value (HEL cells; HEL cell lines, 0.3906 μM) was 18.9566% and 20.0588% and 8.5966% and 7.458% and 10.165% and 8.511%. The “Inhibition (%)” value (HEL cells; HEL cell lines, 0.7813 μM) was 26.0838% and 31.3005% and 30.4188% and 11.594% and 18.814% and 14.151%, the “Inhibition (%)” value (HEL cells; HEL cell lines, 1.5625 μM) was 34.0926% and 44.3057% and 45.4813% and 25.056% and 31.900% and 30.547% and the “Inhibition (%)” value (HEL cells; HEL cell lines, 3.1250 μM, 3.125 µM) was 46.4364% and 51.6532% and 53.8575% and 56.869% and 60.404% and 60.629%. For the same compound, the “Inhibition (%)” value (HEL cells; HEL cell lines, 6.2500 μM, 6.25 µM) was 64.2910% and 65.8339% and 68.7730% and 85.974% and 88.155% and 87.628%, the “Inhibition (%)” value (HEL cells; HEL cell lines, 12.5000 μM, 12.5 µM) was 80.4555% and 78.6187% and 81.4842% and 94.397% and 94.999% and 94.924% and the IC50 (HEL cells; HEL cell lines, mean of 2 replicates, read-out: IC50/μM mean, cellular antiproliferative activity) was 2.41 µM. The IC50 (HEL cells; HEL cell lines, mean ± sd of 2 replicates, read-out: IC50/μM mean ± sd, cellular antiproliferative activity) was 2.41 ± 0.2 µM, the IC50 (HEL cells; HEL cell lines, single-replicate fits, read-out: IC50/μM (individual replicates), cellular antiproliferative activity) was 2.27 µM and 2.55 µM and the IC50 (HEL cells; HEL cells, 72 h, mean ± SD, read-out: Cellular Antiproliferative Activity (IC50) HEL) was 2.41 ± 0.2 µM. It also gave an AUCinf (In vivo PK study in mice; iv (5 mg/kg)) of 752.47 ng·h/mL, a Cmax (In vivo PK study in mice; iv (5 mg/kg)) of 76.57 ng/mL and a T1/2 (In vivo PK study in mice; iv (5 mg/kg)) of 5.35 h. It also gave a Tmax (In vivo PK study in mice; iv (5 mg/kg)) of 4.00 h, an AUCinf (In vivo PK study in mice; po (5 mg/kg)) of 106.00 ng·h/mL and a Cmax (In vivo PK study in mice; po (5 mg/kg)) of 10.35 ng/mL. For the same compound, the T1/2 (In vivo PK study in mice; po (5 mg/kg)) was 4.47 h, the Tmax (In vivo PK study in mice; po (5 mg/kg)) was 6.00 h and the “F (bioavailability)” value (In vivo PK study in mice; po (5 mg/kg) vs iv (5 mg/kg)) was 14.1%.
